Source: ChEMBL document CHEMBL5046254, “Mycobactin Analogues with Excellent Pharmacokinetic Profile Demonstrate Potent Antitubercular Specific Activity and Exceptional Efflux Pump Inhibition” (J Med Chem, 2022)
Converted amounts (≈) assume the structure as drawn.

How the values were obtained:
[1] = test system: Mycobacterium tuberculosis variant bovis; assay: Antimicrobial activity against Mycobacterium bovis BCG ATCC 35734 cultured in GAST-Fe media incubated for 5 days by resazurin microtiter assay; format: functional; conditions: BCG ATCC 35734, 120 h, time 5 day
[2] = test system: Mycobacterium tuberculosis variant bovis; assay: Antimicrobial activity against Mycobacterium bovis BCG ATCC 35734 cultured in GAST media incubated for 5 days by resazurin microtiter assay; format: functional; conditions: BCG ATCC 35734, 120 h, time 5 day

With `Oc1ccccc1C1=NNC(c2ccc(Br)cc2)C1` (stereo not drawn) as the compound, how does the MIC90 [1] read?
The MIC90 was 64 µg/mL (≈ 202 µM).

And the MIC90 [2]?
The MIC90 was 8 µg/mL (≈ 25.2 µM).

For `Oc1ccccc1C1=NNC(c2ccc(Cl)cc2)C1` (stereo not drawn), which MIC90 [1] is on record?
The MIC90 was 32 µg/mL (≈ 117 µM).

What about the MIC90 [2] of the same compound?
Its MIC90 is 8 µg/mL (≈ 29.3 µM).

Which results are given for `NC(=S)N1N=C(c2ccccc2O)CC1c1ccccc1` (stereo not drawn)?
MIC90 [1]: 32 µg/mL (≈ 108 µM); MIC90 [2]: 16 µg/mL (≈ 53.8 µM)

What does the source list for `NC(=S)N1N=C(c2ccccc2O)CC1c1ccc(O)cc1` (stereo not drawn)?
MIC90 [1]: 32 µg/mL (≈ 102 µM); MIC90 [2]: 16 µg/mL (≈ 51.1 µM)
